Data taken from ChEMBL document CHEMBL4673406, “Discovery and Preclinical Evaluation of BMS-986242, a Potent, Selective Inhibitor of Indoleamine-2,3-dioxygenase 1” (ACS Med Chem Lett, 2021).

Experiments:
[1] = target: Acetylcholine receptor subunit alpha (Homo sapiens, UniProt P02708); assay: Inhibition of alpha1 nAChR (unknown origin)
alpha7 nAChR = alpha7 nAChR (Homo sapiens, UniProt P36544); assay: Inhibition of alpha7 nAChR (unknown origin) relative to control; details: read-out: Imax
[2] = target: Indoleamine 2,3-dioxygenase 1 (Mus musculus, UniProt P28776); assay: Inhibition of IDO1 in IFNgamma-stimulated mouse M109 cells preincubated for 2 hrs followed by IFNgamma stimulation and measured after 18 hrs by; format: cell-based
Chain of Indoleamine 2,3-dioxygenase 1 (Mus musculus, UniProt P28776) (P28776 whole entry): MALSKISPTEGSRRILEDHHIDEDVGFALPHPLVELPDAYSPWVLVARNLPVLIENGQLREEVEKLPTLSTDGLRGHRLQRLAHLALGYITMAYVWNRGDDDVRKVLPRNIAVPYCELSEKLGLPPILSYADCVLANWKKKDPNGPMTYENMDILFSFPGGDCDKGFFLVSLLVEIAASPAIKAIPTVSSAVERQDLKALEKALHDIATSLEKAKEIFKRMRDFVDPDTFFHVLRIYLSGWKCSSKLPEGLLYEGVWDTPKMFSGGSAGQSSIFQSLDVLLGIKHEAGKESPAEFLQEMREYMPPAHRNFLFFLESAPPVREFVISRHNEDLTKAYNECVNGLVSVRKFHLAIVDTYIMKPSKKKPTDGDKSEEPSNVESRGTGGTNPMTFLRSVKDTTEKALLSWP

[3] = target: Neuronal acetylcholine receptor subunit alpha-7 (Homo sapiens, UniProt P36544); assay: Inhibition of alpha7 nAChR (unknown origin)
Chain of Neuronal acetylcholine receptor subunit alpha-7 (P36544 whole entry): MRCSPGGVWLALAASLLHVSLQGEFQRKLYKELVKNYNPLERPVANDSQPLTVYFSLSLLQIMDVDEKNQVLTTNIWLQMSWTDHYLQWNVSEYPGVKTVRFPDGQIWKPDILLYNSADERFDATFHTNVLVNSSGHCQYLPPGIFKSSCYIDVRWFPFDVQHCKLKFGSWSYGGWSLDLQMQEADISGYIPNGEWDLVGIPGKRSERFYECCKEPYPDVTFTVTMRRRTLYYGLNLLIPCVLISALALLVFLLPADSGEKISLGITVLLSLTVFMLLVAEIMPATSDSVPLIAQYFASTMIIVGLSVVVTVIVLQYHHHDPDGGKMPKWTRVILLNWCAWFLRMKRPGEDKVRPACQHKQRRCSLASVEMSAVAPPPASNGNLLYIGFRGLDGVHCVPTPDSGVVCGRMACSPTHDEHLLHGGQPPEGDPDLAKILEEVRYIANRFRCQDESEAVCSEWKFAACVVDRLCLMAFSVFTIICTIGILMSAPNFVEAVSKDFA

[4] = Metabolic stability in rat hepatocytes assessed as CYP450-mediated compound metabolism by measuring half life; format: ADME, cell-based, Hepatocyte
[5] = Metabolic stability in mouse hepatocytes assessed as UGT-mediated compound glucuronidation by measuring half life; format: ADME, cell-based, Hepatocyte
[6] = Inhibition of calcium channel (unknown origin) by patch clamp method; set-up: species or system Homo sapiens
[7] = Protein binding in mouse plasma assessed as free fraction; format: ADME, cell-free
[8] = target: UDP-glucuronosyltransferases (UGTs) (Homo sapiens, UniProt O60656+O75310+O75795+P06133+P0DTE4+P0DTE5+P16662+P19224+P22309+P22310+P35503+P35504+P36537+P54855+Q6UWM9+Q9BY64+Q9HAW7+Q9HAW8+Q9HAW9); assay: Metabolic stability in human hepatocytes assessed as UGT-mediated compound glucuronidation by measuring half life; format: ADME, cell-based, Hepatocyte
[9] = Oral bioavailability in mouse at 6 mg/kg; format: ADME, organism-based; details: in vivo
[10] = Half life in mouse at 0.5 mg/kg, iv; format: ADME, organism-based; details: in vivo
[11] = Metabolic stability in mouse hepatocytes assessed as CYP450-mediated compound metabolism by measuring half life; format: ADME, cell-based, Hepatocyte
[12] = AUC in cynomolgus monkey at 1 mg/kg, iv; format: ADME, organism-based, Macaca fascicularis; set-up: dose 1 mg/kg; details: in vivo
[13] = Oral bioavailability in rat at 2 mg/kg; format: ADME, organism-based; details: in vivo
[14] = AUC in mouse at 6 mg/kg, po; format: ADME, organism-based; set-up: dose 6 mg/kg; details: in vivo
Homo sapiens = species: Homo sapiens; assay: Inhibition of sodium channel (unknown origin) at 10 uM and 1 to 4 Hz by patch clamp method relative to control
[15] = Metabolic stability in dog hepatocytes assessed as CYP450-mediated compound metabolism by measuring half life; format: ADME, cell-based, Canis lupus familiaris, Hepatocyte
[16] = Oral bioavailability in dog at 5 mg/kg; format: ADME, organism-based, Canis lupus familiaris; details: in vivo
[17] = Volume of distribution at steady state in rat at 0.5 mg/kg, iv; format: ADME, organism-based; details: in vivo
[18] = target: Indoleamine 2,3-dioxygenase 1 (Mus musculus) (UniProt P28776); assay: In vivo inhibition of IDO1 in nu/nu mouse xenografted with human SK-OV-3 cells assessed as reduction in kynurenine level at 3 mg/kg, po qd by HPLC-MS/MS analysis relative to control; format: functional, organism-based
Chain of Indoleamine 2,3-dioxygenase 1 (Mus musculus) (P28776 whole entry, looked up): as the sequence (P28776 whole entry) above

[19] = target: T1, Indoleamine 2,3-dioxygenase 1 (Homo sapiens, UniProt P14902); assay: Inhibition of IDO1 in IFNgamma-stimulated human HeLa cells preincubated for 2 hrs followed by IFNgamma stimulation and measured after 18 hrs by
T1 sequence (P14902 whole entry): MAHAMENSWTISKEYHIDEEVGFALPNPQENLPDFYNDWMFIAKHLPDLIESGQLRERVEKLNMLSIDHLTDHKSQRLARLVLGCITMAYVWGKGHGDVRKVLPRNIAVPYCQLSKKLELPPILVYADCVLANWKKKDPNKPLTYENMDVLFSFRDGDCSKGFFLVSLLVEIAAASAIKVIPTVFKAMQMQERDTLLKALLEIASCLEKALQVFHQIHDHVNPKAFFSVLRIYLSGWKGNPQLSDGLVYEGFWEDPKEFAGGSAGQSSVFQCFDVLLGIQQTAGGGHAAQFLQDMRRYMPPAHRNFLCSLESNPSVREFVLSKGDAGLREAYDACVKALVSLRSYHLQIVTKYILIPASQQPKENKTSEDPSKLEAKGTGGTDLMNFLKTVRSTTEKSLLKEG

in vitro [20] = details: mouse, liver microsomes
Description: Metabolic stability in mouse liver microsomes assessed as parent compound remaining at 0.5 uM measured after 10 mins

[21] = Volume of distribution at steady state in mouse at 0.5 mg/kg, iv; format: ADME, organism-based; details: in vivo
[22] = AUC (0 to 24 hrs) in nu/nu mouse xenografted with human SK-OV-3 cells measured in tumor at 3 mg/kg, po qd by uHPLC-MS/MS analysis; format: ADME, organism-based; set-up: time < 24 hr, route oral, dose 3 mg/kg
[23] = Metabolic stability in cynomolgus monkey hepatocytes assessed as UGT-mediated compound glucuronidation by measuring half life; format: ADME, cell-based, Macaca fascicularis, Hepatocyte
[24] = AUC in mouse at 0.5 mg/kg, iv; format: ADME, organism-based; set-up: dose 0.5 mg/kg; details: in vivo
[25] = AUC in cynomolgus monkey at 5 mg/kg, po; format: ADME, organism-based, Macaca fascicularis; set-up: dose 5 mg/kg; details: in vivo
[26] = Volume of distribution at steady state in cynomolgus monkey at 1 mg/kg, iv; format: ADME, organism-based, Macaca fascicularis; details: in vivo
[27] = AUC in dog at 5 mg/kg, po; format: ADME, organism-based, Canis lupus familiaris; set-up: dose 5 mg/kg; details: in vivo
[28] = target: T1, Indoleamine 2,3-dioxygenase 1; assay: Inhibition of IDO1 in IFNgamma/LPS-stimulated human whole blood preincubated for 4 hrs followed by IFNgamma/LPS stimulation and incubated for 18 hrs by Rapid-fire mass spectrometry analysis; format: tissue-based
[29] = Metabolic stability in rat hepatocytes assessed as UGT-mediated compound glucuronidation by measuring half life; format: ADME, cell-based, Hepatocyte
[30] = Permeability of the compound at pH 7.4 by PAMPA; format: ADME; details: read-out: permeability
in vitro [31] = details: human, liver microsomes
Description: Metabolic stability in human liver microsomes assessed as parent compound remaining at 0.5 uM measured after 10 mins

[32] = Permeability across apical to basal side in human Caco-2 cells; format: ADME, cell-based; details: read-out: permeability
Cytochrome P450 2C9 = Cytochrome P450 2C9 (Homo sapiens, UniProt P11712); assay: Inhibition of human CYP2C9; format: ADME
Chain of Cytochrome P450 2C9 (P11712 whole entry): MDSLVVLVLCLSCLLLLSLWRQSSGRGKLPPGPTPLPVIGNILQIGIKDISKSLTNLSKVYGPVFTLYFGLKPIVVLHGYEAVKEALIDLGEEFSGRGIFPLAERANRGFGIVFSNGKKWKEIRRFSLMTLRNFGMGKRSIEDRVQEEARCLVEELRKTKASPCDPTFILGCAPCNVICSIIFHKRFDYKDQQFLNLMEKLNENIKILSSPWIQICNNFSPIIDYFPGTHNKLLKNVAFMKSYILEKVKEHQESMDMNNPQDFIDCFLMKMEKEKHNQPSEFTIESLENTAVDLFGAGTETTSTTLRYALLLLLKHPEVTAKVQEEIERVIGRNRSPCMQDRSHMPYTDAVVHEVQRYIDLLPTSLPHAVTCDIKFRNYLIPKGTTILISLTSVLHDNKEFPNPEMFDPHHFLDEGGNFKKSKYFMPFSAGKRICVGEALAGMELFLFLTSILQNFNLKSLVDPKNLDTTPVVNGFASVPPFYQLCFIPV

Cytochrome P450 = Cytochrome P450 (Homo sapiens, UniProt P04798+P05177+P05181+P08684+P10632+P10635+P11509+P11712+P13584+P20813+P20815+P20853+P24462+P24903+P33260+P33261+P51589+P78329+P98187+Q02928+Q08477+Q16678+Q16696+Q5TCH4+Q6VVX0+Q7Z449+Q8TAV3+Q96SQ9+Q9HB55); assay: Metabolic stability in human hepatocytes assessed as CYP450-mediated compound metabolism by measuring half life; format: ADME, cell-based, Hepatocyte
[33] = Permeability across basal to apical side in human Caco-2 cells; format: ADME, cell-based; details: read-out: permeability
[34] = Oral bioavailability in cynomolgus monkey at 5 mg/kg; format: ADME, organism-based, Macaca fascicularis; details: in vivo
[35] = Metabolic stability in dog hepatocytes assessed as UGT-mediated compound glucuronidation by measuring half life; format: ADME, cell-based, Canis lupus familiaris, Hepatocyte
[36] = target: Indoleamine 2,3-dioxygenase 1 (Mus musculus) (UniProt P28776); assay: In vivo inhibition of IDO1 in nu/nu mouse xenografted with human SK-OV-3 cells assessed as reduction in kynurenine level at 30 mg/kg, po qd by HPLC-MS/MS analysis relative to control; format: functional, organism-based
[37] = Half life in rat at 0.5 mg/kg, iv; format: ADME, organism-based; details: in vivo

Chain of alpha7 nAChR (P36544 whole entry): as the sequence (P36544 whole entry) above
Chain of Acetylcholine receptor subunit alpha (P02708 whole entry): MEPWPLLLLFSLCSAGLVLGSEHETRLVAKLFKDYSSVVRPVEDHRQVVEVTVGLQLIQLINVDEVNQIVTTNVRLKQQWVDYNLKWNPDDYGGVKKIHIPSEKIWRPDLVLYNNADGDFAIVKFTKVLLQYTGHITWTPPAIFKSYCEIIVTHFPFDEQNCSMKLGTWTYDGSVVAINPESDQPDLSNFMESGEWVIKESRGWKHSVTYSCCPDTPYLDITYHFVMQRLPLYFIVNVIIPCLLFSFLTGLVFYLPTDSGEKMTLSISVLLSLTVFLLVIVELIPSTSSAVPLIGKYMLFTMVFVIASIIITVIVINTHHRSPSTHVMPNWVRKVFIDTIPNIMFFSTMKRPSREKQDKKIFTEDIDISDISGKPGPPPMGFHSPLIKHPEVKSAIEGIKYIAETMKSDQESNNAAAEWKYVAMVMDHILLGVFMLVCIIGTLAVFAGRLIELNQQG

In the case of C[C@@H](NC(=O)c1ccc(Cl)cc1)[C@H]1CC[C@@H](c2ccnc3ccc(F)cc32)CC1, the IC50 [1] is reported as 12300 nM, the Emax (alpha7 nAChR) is reported as 20% and the IC50 [2] is reported as 2 nM. The IC50 [3] was over 6000 nM, the half-life [4] was 10 min and the half-life [5] was over 120 min. The IC50 [6] was over 25000 nM, the Fu [7] was under 0.2% and the half-life [8] was 120 min. The F [9] was 152%, the t1/2 [10] was 8 min and the half-life [11] was 4 min. For the same molecule, the AUC [12] was 3.4 µM·h, the bioavailability [13] was 127% and the AUC [14] was 12.6 µM·h. It also gave an inhibition (Homo sapiens) of under 20%, a half-life [15] of 10 min and a bioavailability [16] of 39%. For the same molecule, the Vdss [17] was 0.97 L/kg, the inhibition [18] was 45% and the IC50 [19] was 2 nM. The remaining at 10 min, 0.5 µM (in vitro [20]) was 21%, the Vdss [21] was 17 L/kg and the AUC at 24 h [22] was 9.6 µM·h. The half-life [23] was over 120 min, the AUC [24] was 0.69 µM·h and the AUC [25] was 7.1 µM·h. The Vdss [26] was 1 L/kg, the AUC [27] was 17.4 µM·h and the IC50 [28] was 25 nM. The half-life [29] was 93 min, the Papp [30] was 283 ×10⁻⁶ cm/s and the remaining at 10 min, 0.5 µM (in vitro [31]) was 54%. It also gave a Papp A→B [32] of 8.8 ×10⁻⁶ cm/s, an IC50 (Cytochrome P450 2C9) of 740 nM and a half-life (Cytochrome P450) of 14 min. The Papp B→A [33] was 5.5 ×10⁻⁶ cm/s, the bioavailability [34] was 42% and the half-life [35] was 33 min. The inhibition [36] was 59% and the t1/2 [37] was 4 min.
